{"source": "patent US11207379B2", "about": "“Peptides with anti-cancer activity” (IDP DISCOVERY PHARMA, S.L., priority 2016, dated 2021)", "key": {"[1]": {"system": "JB healthy cells (BJ, fibroblast, normal skin)", "test": "Viability assay (MTT, Alamar Blue, hexosaminidase), 72 h", "assay_type": "cell-based", "experimental": "BJ, fibroblast (normal skin), ATCC® CRL-2522™\nCell lines A549, MCF-7 and RAMOS were cultured in incubator under CO2 (6%) at 37° C. in DMEM high glucose (Dulbecco's Modified Eagle Solution, Gibco-BRL 31966-21) medium with 10% fetal bovine serum inactivated (FBS) (Gibco-BRL 10106-169). Cell lines HL-60 and MM.1S were cultured in incubator at 37° C. in RPMI-1640 (Sigma R8758) medium with 10% of fetal bovine serum inactivated (FBS) and 2 mM glutamine (Sigma G7513). Cell lines BJ were cultured in incubator under CO2 (6%) at 37° C. in Eagle's Minimum Essential Medium (Sigma, M-2279) with 10% fetal bovine serum inactivated (FBS) (Gibco-BRL 10106-169).\nDuring the amplification step and the assays adherent cells were rinsed with DPBS (Dulbecco's Phosphate Buffered Saline, Sigma D1283) three times and afterward treated for 5 minutes with trypsin ([…]) (Gibco-BRL, 15400054) in solution of DPBS at 37° C., and, once detached, transferred in the culturing medium. […] Cells were counted in a Neubauer chamber after labelling with Tripan-Blue. […]\nCells were incubated during 72 h in incubator under CO2 atmosphere at 37° C. Cell viability was measured by means of MTT (3-(4,5-dimethylthiazol-2-yl)-2.5-diphenyltetrazolium bromide) assay, Alamar Blue® (Biosource DAL1100) and Hexosaminidase activity test, consecutively, following manufacturer instructions. […]"}, "[2]": {"system": "MM1S cells", "test": "Subcutaneous xenograft model, tumor volume and survival", "assay_type": "in vivo, CB17-SCID immunosuppressed mice", "settings": "5 mg/kg i.p. each 12 h; for Tumor Volume: in mm³ (unit assumed)", "experimental": "CB17-SCID immunosuppressed mice (female) of 6-7 weeks old housed and handled in a pathogen-free zone. They were purchased from Janvier Labs. All experiments were carried out within the facilities of the University of Salamanca.\nGroups Studied: • Control: Medium (PBS) i.p. each 12 hours from Monday to Friday. • S03 i.p. each 12 hours from Monday to Friday (in PBS until end point) • S04 15 mg/kg i.p. each 12 hours from Monday to Friday (in PBS until end point) • S09 5 mg/kg i.p. each 12 hours from Monday to Friday (in PBS until end point)\nSubcutaneous xenoaraft model: The mice were shaved on the right flank and anesthetized by inhalation to decrease their mobility, were inoculated subcutaneously with 3×10^6 MM1S cells in 50 μl of RPMI-1640 medium and 50 μl of Corning® Matrigel® Basement Membrane Matrix. When the tumors became palpable (at 30 days), the mice were randomized into the different groups (5 mice in the control group and 4 in the remaining groups) according to the tumor volume. This was estimated by measurements with a caliper of the two tumor diameters and using the following formula of a spheroid: V=(a·b^2·π)/6, where a and b correspond to the longest and shortest diameter, respectively. Tumor volume was monitored three times per week.\nSurvival evaluation: Mice were sacrificed when their tumor diameter reached 2 cm. The time to reach the endpoint criterion was estimated from the day of treatment start. The statistical differences were evaluated using Kaplan-Meier curves with the log rank test. Statistical analyzes were performed using the SPSS-17.0 program."}, "[3]": {"system": "A549 cells", "test": "Annexin V assay by flow cytometry", "assay_type": "cell-based", "settings": "A549 cells", "experimental": "Miltenyi Biotec Annexin V-FITC Kit was used. To detect apoptosis in early stage Phosphatidylserine in plasmatic membrane localization was measured, though the calcium dependent reaction with Annexine V. Annexin V molecules were labelled with different fluorophores (FITC) and analyzed by FACS. To detect apoptosis in late stage DNA-intercalating agents, such Propidium iodide (PI) were used.\nCells were seeded at a density range of 150000-30000 cells/well in 12 wells plates, and incubated at 37° C. in the incubator under CO2 atmosphere. After 24 h, […] A549, HL-60 and MM.1S, at IC30 and/or IC80, with compounds IDP-S09 and IL-09, in cell lines HL-60 and MM.1S with compound IDP-S04 and in cell line A549 with compounds IDP-S02 and IDP-S03. Staurosporine and compound 100258-F4 (Sigma) were used as positive control and reference compound, respectively."}, "[4]": {"molecular_target": "A549, epithelial (lung cancer)", "test": "Viability assay (MTT, Alamar Blue, hexosaminidase), 72 h", "assay_type": "cell-based", "settings": "A549 cells, read-out: EC50", "in_short": "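A549 cells (5000/well, DMEM+10% FBS) were exposed for 72 h at 37° C. to compound, twofold serial dilutions from 100 μM, in triplicate. Viability was read consecutively by MTT (A570), Alamar Blue fluorescence and hexosaminidase activity, normalised to untreated cells. EC50 came from a variable-slope sigmoidal fit.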"}}}
{"substance": "RQRRNXLKRAFAXLRDQ-OH [IDP-S03]", "values": [{"measurement": "EC50", "setting": "[1]", "value": "> 100", "unit": "µM"}, {"measurement": "differences in survival with respect to the control", "setting": "[2]", "value": 9.5}, {"measurement": "tumor reduction with respect to the control", "setting": "[2]; at the end-time (when the control is sacrificed)", "value": 50, "unit": "%"}, {"measurement": "% Tumor Volume", "setting": "[2]; day of treatment 1 (= 100)", "value": 100, "unit": "%"}, {"measurement": "Tumor Volume", "setting": "[2]; day of treatment 1", "value": 59.0}, {"measurement": "% Tumor Volume", "setting": "[2]; day of treatment 5, relative to day 1", "value": 193.2, "unit": "%"}, {"measurement": "Tumor Volume", "setting": "[2]; day of treatment 5", "value": 114.1}, {"measurement": "% Tumor Volume", "setting": "[2]; day of treatment 10, relative to day 1", "value": 443.9, "unit": "%"}, {"measurement": "Tumor Volume", "setting": "[2]; day of treatment 10", "value": 262.1}, {"measurement": "% Tumor Volume", "setting": "[2]; day of treatment 15, relative to day 1", "value": 661.6, "unit": "%"}, {"measurement": "Tumor Volume", "setting": "[2]; day of treatment 15", "value": 390.7}, {"measurement": "% Tumor Volume", "setting": "[2]; day of treatment 19, relative to day 1", "value": 969.5, "unit": "%"}, {"measurement": "Tumor Volume", "setting": "[2]; day of treatment 19", "value": 572.6}, {"measurement": "% Tumor Volume", "setting": "[2]; day of treatment 26, relative to day 1", "value": 2481.2, "unit": "%"}, {"measurement": "Tumor Volume", "setting": "[2]; day of treatment 26", "value": 1465.2}, {"measurement": "Mean survival, Average", "setting": "[2]; from treatment start until tumor diameter 2 cm", "value": 40.5, "unit": "days"}, {"measurement": "apoptosis induction (Annexin V by FACS), in words", "setting": "[3]", "value": "apoptosis induction is detected after 4 h at both IC30 and IC80"}, {"measurement": "EC50", "setting": "[4]", "value": "34 ± 6", "unit": "µM"}]}
